Data from US8664257B2, “Oxygen-substituted 3-heteroaroylamino-propionic acid derivatives and their use as pharmaceuticals” (Sanofi, priority 2010, dated 2014).
Read-outs that look alike come from different tables or passages of the source.

Molecular target: T1, Recombinant human cathepsin A (Homo sapiens, UniProt P10619)
T1 construct: Recombinant human cathepsin A (residues 29-480, with a C-terminal 10-His tag); 10-His (C); purchased R&D Systems 1049-SE
T1 sequence (P10619 29-312 limits assumed): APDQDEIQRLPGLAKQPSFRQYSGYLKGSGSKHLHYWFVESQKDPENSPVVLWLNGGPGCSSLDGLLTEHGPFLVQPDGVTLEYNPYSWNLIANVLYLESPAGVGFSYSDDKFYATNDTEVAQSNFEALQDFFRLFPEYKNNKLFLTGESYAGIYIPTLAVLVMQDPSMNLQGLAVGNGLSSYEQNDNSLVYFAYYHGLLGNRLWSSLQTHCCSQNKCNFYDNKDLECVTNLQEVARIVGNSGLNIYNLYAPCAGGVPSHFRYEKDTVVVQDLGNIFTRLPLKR
T1 sequence (P10619 327-480 limits assumed): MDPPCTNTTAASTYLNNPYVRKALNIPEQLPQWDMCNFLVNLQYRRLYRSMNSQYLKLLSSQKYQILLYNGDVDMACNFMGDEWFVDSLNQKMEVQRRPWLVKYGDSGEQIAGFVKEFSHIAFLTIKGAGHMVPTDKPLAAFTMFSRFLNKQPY
Test: Cathepsin A inhibitory activity
Format: biochemical
Summary of the method: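 Human cathepsin A (res. 29-480, C-His10) pre-activated with cathepsin L (MES pH 6.0, DTT, 15 min, 37 °C; quenched with 10 μM E-64). Enzyme (833 ng/ml) preincubated 15 min RT with compound in MES pH 5.5/DTT, then 2 μM Bodipy FL-bradykinin for 15 min RT. Capillary electrophoresis product/substrate peak areas; IC50 from % inhibition.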

[1] = pharmacological test "Cathepsin A inhibitory activity", IC50 given as class A/B/C, read-out: Activity (2): Cathepsin A inhibitory activity, IC50 class
[2] = read-out: Activity (2): Cathepsin A inhibitory activity, IC50 class
[3] = read-out: Activity (2): Cathepsin A inhibitory activity (IC50 class)
[4] = recombinant human cathepsin A 833 ng/ml, Bodipy FL-labeled bradykinin 2 μM, pH 5.5, read-out: CATH-A IC50
[5] = recombinant human cathepsin A, read-out: Activity (2): Cathepsin A inhibitory activity, IC50 class

IC50 [2] [nM] | IC50 [3] [nM] | Structure (SMILES) | also measured
 |  | COc1ccc(C(CC(=O)O)NC(=O)c2cc(O)n(-c3ccccc3)n2)c(OC)c1 (stereo not shown) [Example 161] | IC50 [1]: 1000 to 30000 nM
100 to 1000 |  | O=C(O)C[C@H](NC(=O)c1cc(O)n(-c2ccccc2F)n1)c1cccc(Cl)c1 [Example 401] | 
 | < 100 | Cc1ccccc1[C@H](CC(=O)O)NC(=O)c1cc(OCC2CCC2)n(-c2ccccc2F)n1 [Example 649] | 
100 to 1000 |  | O=C(O)C[C@H](NC(=O)c1cc(O)n(-c2ccccc2F)n1)c1ccc(Cl)cc1 [Example 120] | 
 | 100 to 1000 | O=C(O)CC(NC(=O)c1cc(O)n(-c2ccccc2Cl)n1)c1ccc(-c2cccc(Cl)c2)cc1 (stereo not shown) [Example 540] | 
 | < 100 | CCOc1cc(C(=O)N[C@@H](CC(=O)O)c2ccc(C)cc2)nn1-c1ccccc1Cl [Example 736] | 
 | 100 to 1000 | COc1cccc([C@H](CC(=O)O)NC(=O)c2cc(OC)n(-c3ccccc3F)n2)c1 [Example 669] | 
1000 to 30000 |  | Cc1ccc(C)c(-n2nc(C(=O)NC(CC(=O)O)c3ccc(F)c(F)c3)cc2O)c1 (stereo not shown) [Example 47] | 
 |  | O=C(O)CC(NC(=O)c1cc(O)n(-c2cccc(Cl)c2)n1)c1cc(F)ccc1F (stereo not shown) [Example 465, 3-{[1-(3-Chloro-phenyl)-5-hydroxy-1H-pyrazole-3-carbonyl]-amino}-3-(2,5-difluoro-phenyl)-propionic acid] | IC50 [4]: 738 nM; IC50 [5]: 100 to 1000 nM
 | 100 to 1000 | CCOc1cc(C(=O)N[C@@H](CC(=O)O)c2ccccc2C(F)(F)F)nn1-c1ccccc1F [Example 721] | 
100 to 1000 |  | CCc1ccc(C(CC(=O)O)NC(=O)c2cc(O)n(-c3cccc(F)c3)n2)cc1 (stereo not shown) [Example 324] | 
 | 1000 to 30000 | O=C(O)CC(NC(=O)c1cc(O)n(-c2ccccc2)n1)c1ccc(N2CCCC2)cc1 (stereo not shown) [Example 565, 3-[(5-Hydroxy-1-phenyl-1H-pyrazole-3-carbonyl)-amino]-3-(4-pyrrolidin-1-yl-phenyl)-propionic acid] | IC50 [4]: 5020 nM
 |  | Cc1c(F)cccc1C(CC(=O)O)NC(=O)c1cc(O)n(-c2ccccc2F)n1 (stereo not shown) [Example 516, 3-(3-Fluoro-2-methyl-phenyl)-3-{[1-(2-fluoro-phenyl)-5-hydroxy-1H-pyrazole-3-carbonyl]-amino}-propionic acid] | IC50 [4]: 102 nM; IC50 [5]: 100 to 1000 nM
 | < 100 | COc1ccc(C(CC(=O)O)NC(=O)c2cc(OCC3CC3)n(-c3ccccc3F)n2)c(Cl)c1 (stereo not shown) [Example 705] | 
 |  | CCC(C)(C)NC(=O)C[C@H](NC(=O)c1cc(OC)n(-c2ccccc2F)n1)c1ccccc1C [Example 917, 1-(2-Fluoro-phenyl)-5-methoxy-1H-pyrazole-3-carboxylic acid [(S)-2-(1,1-dimethyl-propylcarbamoyl)-1-o-tolyl-ethyl]-amide] | IC50 [5]: 1000 to 30000 nM
1000 to 30000 |  | CC(C)(C)c1ccc(C(CC(=O)O)NC(=O)c2cc(O)n(-c3ccccc3)n2)cc1 (stereo not shown) [Example 66] | 
 |  | N#Cc1cccc([C@H](CC(=O)O)NC(=O)c2cc(O)n(-c3cccc(Cl)c3)n2)c1 [Example 252] | IC50 [1]: 1000 to 30000 nM
 | < 100 | Cc1ccccc1[C@H](CC(=O)O)NC(=O)c1cc(OCC2CC2)n(-c2ccccc2)n1 [Example 622] | 
 |  | O=C(O)CC(NC(=O)c1cc(O)n(-c2ccccc2)n1)c1cc(F)ccc1C(F)(F)F (stereo not shown) [Example 443, 3-(5-Fluoro-2-trifluoromethyl-phenyl)-3-[(5-hydroxy-1-phenyl-1H-pyrazole-3-carbonyl)-amino]-propionic acid] | IC50 [4]: 220 nM; IC50 [5]: 100 to 1000 nM
1000 to 30000 |  | O=C(O)CC(NC(=O)c1cc(O)n(-c2ccc(Cl)cc2)n1)c1ccc(Cl)cc1F (stereo not shown) [Example 286] | 
 |  | O=C(O)CC(NC(=O)c1cc(O)n(-c2cccc(F)c2)n1)c1cc(Cl)ccc1Cl (stereo not shown) [Example 488] | IC50 [5]: 100 to 1000 nM
 |  | O=C(O)C[C@H](NC(=O)c1cc(O)n(-c2ccc(F)cc2F)n1)c1cccc(Cl)c1 [Example 184] | IC50 [1]: 100 to 1000 nM

IC50 [2] [nM] | IC50 [3] [nM] | Structure (SMILES) | also measured
 | < 100 | Cc1ccccc1[C@H](CC(=O)O)NC(=O)c1cc(O)n(C2CCCCC2)n1 [Example 573] | 
 |  | O=C(O)C[C@H](NC(=O)c1cc(O)n(-c2ccc(F)cc2F)n1)c1cccc(F)c1 [Example 183] | IC50 [1]: 100 to 1000 nM
 | 100 to 1000 | COc1cc(C(=O)N[C@@H](CC(=O)O)c2ccccc2C(F)(F)F)nn1-c1ccccc1F [Example 680, (S)-3-{[1-(2-Fluoro-phenyl)-5-methoxy-1H-pyrazole-3-carbonyl]-amino}-3-(2-trifluoromethyl-phenyl)-propionic acid] | 
1000 to 30000 |  | COc1ccc([C@H](CC(=O)O)NC(=O)c2cc(O)n(-c3ccc(Cl)cc3)n2)cn1 [Example 299] | 
100 to 1000 |  | O=C(O)C[C@H](NC(=O)c1cc(O)n(-c2ccc(F)cc2)n1)c1ccc(Cl)cc1Cl [Example 370] | 
100 to 1000 |  | O=C(O)CC(NC(=O)c1cc(O)n(-c2ccc(F)cc2)n1)c1ccc(-c2ccc(F)cc2)cc1 (stereo not shown) [Example 371] | 
 |  | O=C(O)CC(NC(=O)c1cc(O)n(-c2ccc(F)cc2)n1)c1ccc(Oc2ccccc2)cc1 (stereo not shown) [Example 437] | IC50 [5]: 100 to 1000 nM
100 to 1000 |  | O=C(O)CC(NC(=O)c1cc(O)n(-c2ccccc2)n1)c1ccc(Cl)c(Cl)c1 (stereo not shown) [Example 62] | 
 | 100 to 1000 | COc1cc(C(=O)N[C@@H](CC(=O)O)c2ccccc2C)nn1-c1ccccc1Cl [Example 608] | 
 | < 100 | Cc1ccccc1[C@H](CC(=O)O)NC(=O)c1cc(OCC2CC2(F)F)n(-c2ccccc2F)n1 (stereo partly shown) [Example 645] | 
 | 100 to 1000 | COc1ccc(C(CC(=O)O)NC(=O)c2cc(O)n(-c3ccccc3)n2)c(C(F)(F)F)c1 (stereo not shown) [Example 546, 3-[(5-Hydroxy-1-phenyl-1H-pyrazole-3-carbonyl)-amino]-3-(4-methoxy-2-trifluoromethyl-phenyl)-propionic acid] | IC50 [4]: 533 nM
 |  | O=C(O)CC(NC(=O)c1cc(O)n(-c2cccc(Cl)c2)n1)c1ccc(-c2ccccn2)cc1 (stereo not shown) [Example 513, 3-{[1-(3-Chloro-phenyl)-5-hydroxy-1H-pyrazole-3-carbonyl]-amino}-3-(4-pyridin-2-yl-phenyl)-propionic acid] | IC50 [4]: 195 nM; IC50 [5]: 100 to 1000 nM
100 to 1000 |  | O=C(O)CC(NC(=O)c1cc(O)n(-c2ccccc2F)n1)c1cccc(Cl)c1 (stereo not shown) [Example 396] | 
 | < 100 | O=C(O)CC(NC(=O)c1cc(OCC2CC2)n(-c2ccccc2F)n1)c1cc(Cl)ccc1Cl (stereo not shown) [Example 704] | 
1000 to 30000 |  | Cc1ccc(C)c(-n2nc(C(=O)NC(CC(=O)O)C3CCOCC3)cc2O)c1 (stereo not shown) [Example 43] | 
100 to 1000 |  | COc1ccc(C(CC(=O)O)NC(=O)c2cc(O)n(-c3ccccc3)n2)c(F)c1 (stereo not shown) [Example 92] | 
 |  | O=C(O)CC(NC(=O)c1cc(O)n(-c2ccccc2Cl)n1)c1cccc(C(F)(F)F)c1F (stereo not shown) [Example 221, 3-{[1-(2-Chloro-phenyl)-5-hydroxy-1H-pyrazole-3-carbonyl]-amino}-3-(2-fluoro-3-trifluoromethyl-phenyl)-propionic acid] | IC50 [1]: 100 to 1000 nM; IC50 [4]: 322 nM
1000 to 30000 |  | CC(C)C(CC(=O)O)NC(=O)c1cc(O)n(-c2ccccc2)n1 (stereo not shown) [Example 13] | 
1000 to 30000 |  | CCCCC(CC(=O)O)NC(=O)c1cc(O)n(-c2cc(C)ccc2C)n1 (stereo not shown) [Example 33] | 
 | < 100 | CCOc1cc(C(=O)N[C@@H](CC(=O)O)c2ccc(C(F)(F)F)cc2)nn1-c1ccccc1F [Example 715] | 
 | 100 to 1000 | Cc1ccccc1[C@H](CC(=O)O)NC(=O)c1cc(O)n(-c2cccc(Cl)c2F)n1 [Example 589] | 

Structure (SMILES) | IC50 [2] [nM] | IC50 [3] [nM] | also measured
CC(C)[C@](C)(O)COc1cc(C(=O)N[C@@H](CC(=O)O)c2ccc(F)cc2)nn1-c1ccccc1F [Example 872, (S)-3-(4-Fluoro-phenyl)-3-{[1-(2-fluoro-phenyl)-5-((S)-2-hydroxy-2,3-dimethyl-butoxy)-1H-pyrazole-3-carbonyl]-amino}-propionic acid] | 100 to 1000 |  | 
CC(C)(C)[C@@](C)(O)COc1cc(C(=O)N[C@@H](CC(=O)O)c2cccc(F)c2)nn1-c1ccccc1F [Example 779, (S)-3-(3-Fluoro-phenyl)-3-{[1-(2-fluoro-phenyl)-5-((R)-2-hydroxy-2,3,3-trimethyl-butoxy)-1H-pyrazole-3-carbonyl]-amino}-propionic acid] |  | < 100 | 
COc1ccccc1[C@H](CC(=O)O)NC(=O)c1cc(OC[C@@](C)(O)C(C)C)n(-c2ccccc2F)n1 [Example 783, (S)-3-{[1-(2-Fluoro-phenyl)-5-((S)-2-hydroxy-2,3-dimethyl-butoxy)-1H-pyrazole-3-carbonyl]-amino}-3-(2-methoxy-phenyl)-propionic acid] |  | < 100 | 
CC(C)C(C)(O)COc1cc(C(=O)N[C@H](CC(=O)O)Cc2ccccc2)nn1-c1ccccc1F (stereo partly drawn) [Example 838, (S)-3-{[1-(2-Fluoro-phenyl)-5-(2-hydroxy-2,3-dimethyl-butoxy)-1H-pyrazole-3-carbonyl]-amino}-4-phenyl-butyric acid] | 1000 to 30000 |  | 
CC(C)C[C@@H](CC(=O)O)NC(=O)c1cc(OC[C@@](C)(O)C(C)C)n(-c2ccccc2F)n1 [Example 841, (S)-3-{[1-(2-Fluoro-phenyl)-5-((S)-2-hydroxy-2,3-dimethyl-butoxy)-1H-pyrazole-3-carbonyl]-amino}-5-methyl-hexanoic acid] | 1000 to 30000 |  | 
